Marks after values point to notes of the source that are not given here.
Key:
[1] = test system: obese patients with hypercholesterolemia and hypertriglyceridemia; assay: Clinical comparative study of Orlistat, Atorvastatin and combination: lipid profile; assay type: in vivo; details: for C-HDL Baseline change at 1 year / C-LDL Baseline change at 1 year / CT Baseline change at 1 year / TG Baseline change at 1 year: 1 Year versus baseline; for C-HDL / C-LDL / CT (Total Cholesterol) / TG (Triglycerides): average (SD)
Protocol: (§1) Methods. Selected patients were obese with a Body Mass Index (IMC) >30 Kg/m^2; with border (Total cholesterol 200-240 mg./dL.) or severe (Total cholesterol ≥ 240 mg./dL.) hypercholesterolemia; with hypertriglyceridemia (≥ 150 mg./dL.); normal pressure patients (systolic pressure <140 mm Hg and diastolic pressure < 90 mm Hg).
(§2) Patients were >50 years old. Patients were randomized for receiving in Group 1: Orlistat 1 capsule (120 mg.) in main meal.
(§3) Compliance with treatment was assessed by counting capsules and with follow-up visits every 3 months. Total cholesterol, LDL cholesterol, HDL Cholesterol, Triglycerides in serum and blood pressure during baseline visit were assessed, and at 6 months and 12 months of treatment. Waist index was assessed.

[2] = test system: obese patients with hypercholesterolemia and hypertriglyceridemia; assay: Clinical comparative study: body weight (body mass index, waist circumference reduction, weight loss); assay type: in vivo
Protocol: as §1, §2, §3

[3] = test system: obese patients with hypercholesterolemia and hypertriglyceridemia; assay: Clinical comparative study: blood pressure; assay type: in vivo
Protocol: as §1, §2, §3

[4] = test system: obese patients with hypercholesterolemia and hypertriglyceridemia; details: human, in vivo
Protocol: as §1, §2, §3

plasma proteins = details: in vitro; lipoproteins and albumin main attachment proteins; cited from earlier work
[5] = dosage of 120 mg once a day; cited from earlier work
[6] = cited from earlier work
[7] = dose-response study; cited from earlier work

SMILES | C-HDL Baseline change at 1 year [1] | C-LDL Baseline change at 1 year [1] | CT Baseline change at 1 year [1] | TG Baseline change at 1 year [1] | C-HDL ([1]; 1 year of treatment) | C-LDL ([1]; 1 year of treatment) | CT (Total Cholesterol) ([1]; 1 year of treatment) | TG (Triglycerides) ([1]; 1 year of treatment) | C-HDL ([1]; 6 months of treatment) | C-LDL ([1]; 6 months of treatment) | CT (Total Cholesterol) ([1]; 6 months of treatment) | TG (Triglycerides) ([1]; 6 months of treatment) | IMC Baseline changes ([2]; 1 Year versus baseline) | PP Baseline changes ([2]; 1 Year versus baseline) | RCC Baseline changes ([2]; 1 Year versus baseline) | PP (Weight loss) ([2]; 1 year) | RCC (Waist circumference reduction) ([2]; 1 year) | PP (Weight loss) ([2]; 6 Months) | RCC (Waist circumference reduction) ([2]; 6 Months) | IMC Baseline changes ([2]; 6 Months versus baseline) | also measured
CCCCCCCCCCC[C@@H](C[C@@H]1OC(=O)[C@H]1CCCCCC)OC(=O)[C@H](CC(C)C)NC=O [Orlistat] | 4.8% | -17.0* % | -13.0* % | -30-3** % | 45 (6) mg./dL. | 152 (23) mg./dL. | 211 (25) mg./dL. | 100 (22) mg./dL. | 44 (5) mg./dL. | 163 (21) mg./dL. | 232 (22) mg./dL. | 120 (24) mg./dL. | -6.2** % | -4.6** % | -4.6* % | -6.6 (1.5) | -4.1 (1.1) cm. | -4.0 (1.2) | -2.1 (0.7) cm. | -3.2* % | IMC (Body Mass Index) ([2]; 1 year): 27.3 (1.3) Kg./M^2; IMC (Body Mass Index) ([2]; 6 Months): 30.3 (1.4) Kg./M^2; PP Baseline changes ([2]; 6 Months versus baseline): -4.* %; RCC Baseline changes ([2]; 6 Months versus baseline): -2.1* %; Diastolic Baseline changes ([3]; 1 Year versus baseline): -8.0* %; Systolic Baseline changes ([3]; 1 Year versus baseline): -16.0* %; Diastolic blood pressure [PAD] ([3]; 1 year): 82 (3) mm. Hg; Systolic blood pressure [PAS] ([3]; 1 year): 128 (3) mm. Hg; Diastolic blood pressure [PAD] ([3]; 6 Months): 82 (3) mm. Hg; Systolic blood pressure [PAS] ([3]; 6 Months): 130 (3) mm. Hg; Diastolic Baseline changes ([3]; 6 Months versus baseline): -8.0%; Systolic Baseline changes ([3]; 6 Months versus baseline): -6.0%; adverse events [4]: Two patients from Group 1 showed adverse gastrointestinal events (fecal urgency); attached to plasma proteins (plasma proteins): > 99%; maximum inhibition of fatty absorption [5]: 30%; intact Orlistat concentrations ([6]; at 8 hours after oral administration, not detectable): < 5 ng/mL; two main metabolites M1 and M3 as share of total plasma concentration ([6]; of the minimal systemically absorbed fraction of the dose): about 42%
CC(C)c1c(C(=O)Nc2ccccc2)c(-c2ccccc2)c(-c2ccc(F)cc2)n1CC[C@@H](O)C[C@@H](O)CC(=O)O [Atorvastatin] | 12.3** % | -33.0** % | -27.0** % | -25.0* % | 46 (5) mg./dL. | 104 (23) mg./dL. | 184 (23) mg./dL. | 125 (28) mg./dL. | 44 (5) mg./dL. | 151 (22)* mg./dL. | 191 (21)* mg./dL. | 126 (29) mg./dL. | -4.1* % | -4.6* % | -3.7* % | -7.3 (1.2) | -3.1 (1.1) cm. | -3.7 (1.1) | -1.5 (0.7) cm. | -2.3% | PP Baseline changes ([2]; 6 Months versus baseline): -3.7%; RCC Baseline changes ([2]; 6 Months versus baseline): -1.5%; Diastolic Baseline changes ([3]; 1 Year versus baseline): -7.0* %; Systolic Baseline changes ([3]; 1 Year versus baseline): -6.0* %; Diastolic blood pressure [PAD] ([3]; 1 year): 83 (3) mm. Hg; Systolic blood pressure [PAS] ([3]; 1 year): 127 (4) mm. Hg; Diastolic blood pressure [PAD] ([3]; 6 Months): 85 (4) mm. Hg; Systolic blood pressure [PAS] ([3]; 6 Months): 130 (4) mm. Hg; Diastolic Baseline changes ([3]; 6 Months versus baseline): -5.0%; Systolic Baseline changes ([3]; 6 Months versus baseline): -3.0%; alterations as to serum transaminases or in creatinphosphokinase activity [4]: did not show alterations; reduce LDL cholesterol [7]: 41-61%; reduce apolipoprotein B [7]: 34-50%; reduce total cholesterol [7]: 30-46%; reduce triglycerides [7]: 14-33%

— patent EP2179732A1, “PHARMACEUTICAL COMPOSITION COMBINING AN ENZYME HMG-COA REDUCTASE INHIBITING AGENT AND A GASTROINTESTINAL LIPASE ENZYME INHIBITING AGENT” (Espinosa Abdala, Leopoldo de Jesús, priority 2007, dated 2008)
